A short description of assay [1]: Selectivity ratio of IC50 for inhibition of N-terminal His-tagged PTPN12 catalytic domain (1 to 294 residues) (unknown origin) expressed in Escherichia coli BL21 (DE3) cells to IC50 for inhibition of N-terminal His-tagged LYP catalytic domain (1 to 294 residues) (unknown origin) expressed in Escherichia coli BL21 (DE3) cells using pNPP as substrate.
Assay [2] in a line: Selectivity ratio of IC50 for inhibition of N-terminal His-tagged PTP1B catalytic domain (1 to 294 residues) (unknown origin) expressed in Escherichia coli BL21 (DE3) cells to IC50 for inhibition of N-terminal His-tagged LYP catalytic domain (1 to 294 residues) (unknown origin) expressed in Escherichia coli BL21 (DE3) cells using pNPP as substrate.
Assay [3] in a line: Selectivity ratio of IC50 for inhibition of N-terminal His-tagged PTPN5 catalytic domain (1 to 294 residues) (unknown origin) expressed in Escherichia coli BL21 (DE3) cells to IC50 for inhibition of N-terminal His-tagged LYP catalytic domain (1 to 294 residues) (unknown origin) expressed in Escherichia coli BL21 (DE3) cells using pNPP as substrate.
Assay [4] deals with T1, Protein phosphatase Slingshot homolog 2 (Homo sapiens, UniProt Q76I76).
T1 sequence (Q76I76 whole entry): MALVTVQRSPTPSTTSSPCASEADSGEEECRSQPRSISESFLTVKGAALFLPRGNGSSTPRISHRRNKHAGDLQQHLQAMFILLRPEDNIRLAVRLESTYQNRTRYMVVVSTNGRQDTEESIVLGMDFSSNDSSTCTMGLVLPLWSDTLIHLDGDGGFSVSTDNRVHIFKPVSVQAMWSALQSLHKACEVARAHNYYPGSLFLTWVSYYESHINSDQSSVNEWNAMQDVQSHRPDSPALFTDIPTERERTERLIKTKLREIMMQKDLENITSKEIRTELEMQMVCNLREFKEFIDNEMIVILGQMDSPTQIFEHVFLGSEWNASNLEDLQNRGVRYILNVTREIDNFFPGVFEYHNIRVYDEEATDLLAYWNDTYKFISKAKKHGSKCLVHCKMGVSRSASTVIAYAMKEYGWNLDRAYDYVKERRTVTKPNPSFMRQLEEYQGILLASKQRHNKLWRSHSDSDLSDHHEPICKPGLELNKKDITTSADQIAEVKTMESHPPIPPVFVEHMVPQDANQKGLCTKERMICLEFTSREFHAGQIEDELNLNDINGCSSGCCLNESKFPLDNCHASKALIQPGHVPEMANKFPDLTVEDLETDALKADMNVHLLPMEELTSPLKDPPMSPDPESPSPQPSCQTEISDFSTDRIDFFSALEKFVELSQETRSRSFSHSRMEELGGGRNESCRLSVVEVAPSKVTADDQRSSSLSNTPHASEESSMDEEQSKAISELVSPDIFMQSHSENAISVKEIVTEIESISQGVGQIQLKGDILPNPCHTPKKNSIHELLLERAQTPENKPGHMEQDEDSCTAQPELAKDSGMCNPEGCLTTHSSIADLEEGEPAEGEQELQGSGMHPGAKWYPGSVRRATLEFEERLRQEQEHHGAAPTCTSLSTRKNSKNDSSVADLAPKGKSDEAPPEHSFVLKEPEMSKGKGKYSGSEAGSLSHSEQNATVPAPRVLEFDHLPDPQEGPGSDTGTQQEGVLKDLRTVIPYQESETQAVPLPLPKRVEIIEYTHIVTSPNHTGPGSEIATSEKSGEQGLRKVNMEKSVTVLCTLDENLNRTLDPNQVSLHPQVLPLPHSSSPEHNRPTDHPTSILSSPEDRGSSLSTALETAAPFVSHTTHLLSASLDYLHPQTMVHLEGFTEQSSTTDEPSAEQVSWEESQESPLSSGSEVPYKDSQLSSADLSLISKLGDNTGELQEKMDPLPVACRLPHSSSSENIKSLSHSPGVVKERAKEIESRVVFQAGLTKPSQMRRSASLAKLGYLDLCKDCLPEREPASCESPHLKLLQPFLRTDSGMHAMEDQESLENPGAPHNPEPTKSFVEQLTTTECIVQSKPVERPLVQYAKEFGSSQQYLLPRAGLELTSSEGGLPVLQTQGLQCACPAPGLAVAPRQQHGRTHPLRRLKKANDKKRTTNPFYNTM
Description: Inhibition of N-terminal His-tagged SSH2 catalytic domain (1 to 294 residues) (unknown origin) expressed in Escherichia coli BL21 (DE3) cells.

Assay [5] has as its target T2, Tyrosine-protein phosphatase non-receptor type 22 (Homo sapiens, UniProt Q9Y2R2).
T2 sequence (Q9Y2R2 whole entry): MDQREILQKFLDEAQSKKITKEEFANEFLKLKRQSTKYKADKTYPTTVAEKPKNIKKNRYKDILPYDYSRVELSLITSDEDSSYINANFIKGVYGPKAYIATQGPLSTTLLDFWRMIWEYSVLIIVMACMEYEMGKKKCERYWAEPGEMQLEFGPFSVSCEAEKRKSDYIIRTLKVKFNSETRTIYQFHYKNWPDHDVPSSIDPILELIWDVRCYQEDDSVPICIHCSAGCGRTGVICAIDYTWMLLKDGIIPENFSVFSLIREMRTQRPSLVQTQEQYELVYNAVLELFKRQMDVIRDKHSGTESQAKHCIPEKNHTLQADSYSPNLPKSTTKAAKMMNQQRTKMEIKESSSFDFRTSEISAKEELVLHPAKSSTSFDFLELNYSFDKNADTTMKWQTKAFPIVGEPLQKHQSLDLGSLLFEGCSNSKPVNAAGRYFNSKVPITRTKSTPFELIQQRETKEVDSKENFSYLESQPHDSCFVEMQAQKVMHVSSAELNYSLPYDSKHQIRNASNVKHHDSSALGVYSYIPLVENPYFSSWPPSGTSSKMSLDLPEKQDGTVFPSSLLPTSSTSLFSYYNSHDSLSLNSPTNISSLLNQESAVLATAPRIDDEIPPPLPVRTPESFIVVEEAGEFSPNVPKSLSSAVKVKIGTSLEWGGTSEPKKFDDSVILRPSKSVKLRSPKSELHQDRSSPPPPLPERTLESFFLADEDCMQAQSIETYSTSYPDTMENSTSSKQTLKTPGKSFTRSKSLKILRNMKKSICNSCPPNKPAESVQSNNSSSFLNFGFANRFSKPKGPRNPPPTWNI
Description: Competitive inhibition of N-terminal His-tagged LYP catalytic domain (1 to 294 residues) (unknown origin) expressed in Escherichia coli BL21 (DE3) cells using pNPP as substrate assessed as inhibition constant by Lineweaver-Burk plot analysis.

The test system of assay [6] is MC-38. Description: Antitumor immunity against mouse MC-38 cells implanted in syngenic C57BL/6J mouse model assessed as increase in NKT cell proportion at 50 mg/kg, IG administered twice daily for 14 days. It counts as functional, organism-based. To be noted: time 14.0 day.
Assay [7] concerns MC-38. Description: Antitumor immunity against mouse MC-38 cells implanted in syngenic C57BL/6J mouse model assessed as upregulation of PD1 expression in CD4+ T cells at 50 mg/kg, IG administered twice daily for 14 days by flow cytometric analysis. It counts as functional, organism-based. To be noted: time 14.0 day. On the technique in general: A flow cytometer gives signals particle by particle.

Assay [8] is described as follows: Upregulation of PD-L1 expression in mouse MC-38 cells at 20 uM incubated for 48 hrs by flow cytometric analysis (reference value: 23.3%). Format: functional.

Active and inactive are the calls of the source. No cut-off for these calls is given here.

Regarding `O=C(O)c1cc2cc(N(Cc3ccc(-c4ccccc4)cc3)S(=O)(=O)c3ccc(-c4cccc(O)c4)cc3)ccc2o1`, the Ratio IC50 was 1.8 in assay [1], 1.8 in assay [2] and > 5.5 in assay [3]. Besides, the half-maximal inhibitory concentration (IC50) in assay [4] is > 20 µM.

Turning to `CC(=O)C1=C(C)N=c2s/c(=C/c3ccc(OCc4ccc(C(=O)O)cc4)cc3)c(=O)n2C1c1ccc(N(C)C)cc1` (stereo not given), the Ratio IC50 in assay [1] and in assay [2] was 1.2 throughout. For the same compound, the IC50 in assay [4] is > 20 µM. Further, the Ki in assay [5] turned out to be 4.38 µM.

Regarding `COc1ccc(-c2ccc(CN(c3ccc4oc(C(=O)O)cc4c3)S(=O)(=O)c3ccc(Cl)c([N+](=O)[O-])c3)cc2)cc1`, the 50% inhibitory concentration (IC50) in assay [4] is > 20 µM. Besides, in assay [5], the Ki was found to be 1.34 µM. Moreover, the outcome in assay [6] and in assay [7] was Active. The compound also showed an Activity in assay [8] of 43.6%.

On to `O=C(O)c1cc2cc(N(Cc3ccc(OCc4ccccc4)cc3)S(=O)(=O)c3ccc(-c4ccccc4)cc3)ccc2o1`, for which the Ratio IC50 in assay [1], in assay [2] and in assay [3] was > 3.5 each time. For the same compound, in assay [4], the IC50 was > 20 µM. Besides, the inhibition constant (Ki) in assay [5] stood at 0.93 µM. The result in assay [6] and in assay [7] was Active. In assay [8], the Activity came to 59.2%.

Regarding `O=C(O)c1cc2cc(N(Cc3cccc(-c4ccccc4)c3)S(=O)(=O)c3ccc(-c4ccccc4)cc3)ccc2o1`, the Ratio IC50 in assay [1] is 1.8; in assay [2], 1.8; in assay [3], > 5.5. Further, the half-maximal inhibitory concentration (IC50) in assay [4] is > 20 µM.

For orientation: IC50 means the concentration needed to halve the response being measured. Low readings indicate higher potency, high ones lower potency. The term Ki denotes a dissociation constant, usually derived from enzyme kinetics or from competition with a known ligand.

For the origin of these results see ChEMBL document CHEMBL5620412, “Discovery of benzofuran-2-carboxylic acid derivatives as lymphoid tyrosine phosphatase (LYP) inhibitors for cancer immunotherapy” (Eur J Med Chem, 2023).
